Test results reported in publication PMC10793205, “Differential transmetallation of complexes of the anti-cancer thiosemicarbazone, Dp4e4mT: effects on anti-proliferative efficacy, redox activity, oxy-myoglobin and oxy-hemoglobin oxidation” (Chemical Science, 2023).

tested on: SK-N-MC cells; experiment: MTT cellular proliferation assay, SK-N-MC neuroepithelioma cells; type: cell-based, human; details: Homo sapiens; SK-N-MC, 24 h, 37 °C, MTT, mean ± SD (3 experiments)
Method: The anti-proliferative activity of Dp4e4mT relative to its complexes with Fe(III), Co(III), Ni(II), Cu(II), Zn(II), Ga(III), and Pd(II) was examined over incubation periods of 24-, 48-, and 72 h/37 °C (Table 2). These studies were performed using human SK-N-MC neuroepithelioma and AsPC-1 pancreatic adenocarcinoma cells that we have previously examined to assay other ligands.[15,28,43] […]
All cell lines were procured from the American Type Culture Collection (ATCC; Manassas, VA). The SK-N-MC neuroepithelioma cell line and the mortal MRC-5 fibroblasts were cultured in minimum essential medium (Sigma-Aldrich), while the AsPC-1 cell line was cultured in Roswell Park Memorial Institute 1640 medium (Thermo Fisher Scientific, MA, USA). Both media were supplemented with 10% fetal calf serum, non-essential amino acids (1 mM), sodium pyruvate (1 mM), L-glutamine (2 mM), penicillin (100 U/mL), streptomycin (100 U/mL), and Fungizone (0.5 µg/mL). Cells were maintained at 37 °C in an incubator under a humidified atmosphere with 5% CO 2, following established protocols. 11 Cellular Proliferation Assay
Cellular proliferation was evaluated through the established 3-(4,5-dimethylthiazol-2-yl)-2,5-diphenyltetrazolium bromide (MTT) proliferation assay, validated by viable cell counts.12 […]
Ligands and complexes were dissolved in DMSO to make a stock solution of 10 mM, subsequently diluted in culture media. For cell culture experiments, the DMSO's maximum concentration remained below 0.5% (v/v), with no discernible impact on proliferation.12 MTT […]
Trypan blue staining.12 Analysis of the data was executed employing MARS Data Analysis Software (BMG LabTech; version 3.30). The concentration of agents necessary to inhibit cellular proliferation by 50% (IC 50) was then calculated. […]

| IC50 [nM] | Structure (SMILES) |
| --- | --- |
| 22300 ± 83 | CN(C(=S)NN=C(c1ccccn1)c1ccccn1)C1CCCCC1 [DpC, di-2-pyridylketone 4-cyclohexyl-4-methyl-3-thiosemicarbazone, reference compound] |
| > 25000 | CN(C)C(=S)NN=C(c1ccccn1)c1ccccn1 [Dp44mT, di-2-pyridylketone 4,4-dimethyl-3-thiosemicarbazone, reference compound] |

same assay, conditions: Homo sapiens; SK-N-MC, 48 h, 37 °C, MTT, mean ± SD (3 experiments)

| IC50 [nM] | Structure (SMILES) |
| --- | --- |
| 88 ± 7 | CN(C(=S)NN=C(c1ccccn1)c1ccccn1)C1CCCCC1 [DpC, di-2-pyridylketone 4-cyclohexyl-4-methyl-3-thiosemicarbazone, reference compound] |
| 43 ± 6 | CN(C)C(=S)NN=C(c1ccccn1)c1ccccn1 [Dp44mT, di-2-pyridylketone 4,4-dimethyl-3-thiosemicarbazone, reference compound] |

same assay, conditions: Homo sapiens; SK-N-MC, 72 h, 37 °C, MTT, mean ± SD (3 experiments)

| IC50 [nM] | Structure (SMILES) |
| --- | --- |
| 28 ± 9 | CN(C(=S)NN=C(c1ccccn1)c1ccccn1)C1CCCCC1 [DpC, di-2-pyridylketone 4-cyclohexyl-4-methyl-3-thiosemicarbazone, reference compound] |
| 6 ± 1 | CN(C)C(=S)NN=C(c1ccccn1)c1ccccn1 [Dp44mT, di-2-pyridylketone 4,4-dimethyl-3-thiosemicarbazone, reference compound] |

same assay, conditions: IC50 of MRC-5 cells/IC50 of SK-N-MC cells, 72 h/37 °C

| Structure (SMILES) | Therapeutic index SK-N-MC |
| --- | --- |
| CN(C(=S)NN=C(c1ccccn1)c1ccccn1)C1CCCCC1 [DpC, di-2-pyridylketone 4-cyclohexyl-4-methyl-3-thiosemicarbazone, reference compound] | 149 |
| CN(C)C(=S)NN=C(c1ccccn1)c1ccccn1 [Dp44mT, di-2-pyridylketone 4,4-dimethyl-3-thiosemicarbazone, reference compound] | 152 |

tested on: H2DCF; experiment: Redox activity: H2DCF oxidation to DCF (cell-free, L-cysteine/H2O2); type: biochemical; details: 10 μM, pH 7.4 and pH 5, no added CuCl2
Method: Redox activity in cells was examined using an established in vitro method examining 2′,7′-dichlorodihydrofluorescein (H2DCF) oxidation to fluorescent 2′,7′-dichlorofluorescein (DCF) at cytosolic pH (pH 7.4 using HBSS buffer) relative to lysosomal pH (pH 5; acetate buffer; Fig. 5).[25,26,28,42,46] To these buffers containing the complexes, L-cysteine (100 μM) was added as a reducing agent, followed by H2DCF (5 μM). Then, hydrogen peroxide (H2O2; 100 μM) was added to initiate hydroxyl radical generation. Both [Cu(DpC)Cl2] and [Cu(DpC)2] were used as positive controls due to their documented redox activity.[28,42] In contrast, the ligand, DpC, was implemented as a negative control, as it is redox inert.[28,42] As an additional control, the established Cu chelator, tetrathiomolybdate (TM), was utilized to remove Cu from the thiosemicarbazone complexes to indicate its role in their redox activity.[27,28,42] Additionally, UV-vis spectroscopy (300–700 nm) of the same solution for each complex was also performed to understand both the oxidation of H2DCF and the formation of fluorescent DCF upon excitation at 503 nm (Fig. S20A–F and S21A–F ^†). […]
ROS Generation Analysis with H 2DCF-DA
The generation of reactive oxygen species (ROS) was assessed by examining the oxidation of H2DCF.2, 8, 13, 14 Solutions containing CuCl2, TM, DpC, Dp4e4mT, [Fe(DpC)2]+, [Cu(DpC)Cl2], [Cu(DpC)2] and the Dp4e4mT complexes were prepared at a concentration of 10 µM in either HBSS (pH 7.4) or 150 mM acetate buffer (pH 5) to simulate the conditions of the cytosol and lysosome, respectively.2, 8, 14, 15 The H2DCF was prepared by deacetylation of DCFH-DA (Sigma-Aldrich) through alkaline hydrolysis using NaOH. 16
In these prepared solutions, L-cysteine (100 µM) was added as a reducing agent and then H2DCF (5 µM) added. The initiation of hydroxyl radical generation was achieved by the addition of hydrogen peroxide (H2O2; 100 µM). As a comparative benchmark, HBSS or acetate buffer containing L-cysteine, H2DCF, and H2O2, but lacking ligands or metal complexes, was employed as a control. Fluorescence measurements were carried out using a CLARIOstar Plus microplate reader (BMG LABTECH, Australia) with an excitation wavelength of 485 nm and an emission wavelength of 530 nm. 8, 14

| Structure (SMILES) | DCF fluorescence (H2DCF oxidation) of agent alone |
| --- | --- |
| CN(C(=S)NN=C(c1ccccn1)c1ccccn1)C1CCCCC1 [DpC, di-2-pyridylketone 4-cyclohexyl-4-methyl-3-thiosemicarbazone, reference compound] | did not significantly (p > 0.05) increase DCF fluorescence |

tested on: human tumor xenografts; experiment: not given; details: in vivo after oral administration; cited from earlier work

| Structure (SMILES) | efficacy against a lung tumor xenograft |
| --- | --- |
| CN(C(=S)NN=C(c1ccccn1)c1ccccn1)C1CCCCC1 [DpC, di-2-pyridylketone 4-cyclohexyl-4-methyl-3-thiosemicarbazone, reference compound] | potent efficacy against a lung tumor xenograft |

same assay, conditions: nude mice, 0.4 mg per kg per day; cited from earlier work

| Structure (SMILES) | inhibition of human tumor xenografts |
| --- | --- |
| CN(C)C(=S)NN=C(c1ccccn1)c1ccccn1 [Dp44mT, di-2-pyridylketone 4,4-dimethyl-3-thiosemicarbazone, reference compound] | selectively inhibited a variety of human tumor xenografts in nude mice |

tested on: not given; experiment: not given; details: mice, intravenous, intensive non-optimal doses; cited from earlier work

| Structure (SMILES) | cardiac fibrosis |
| --- | --- |
| CN(C)C(=S)NN=C(c1ccccn1)c1ccccn1 [Dp44mT, di-2-pyridylketone 4,4-dimethyl-3-thiosemicarbazone, reference compound] | demonstrated cardiac fibrosis |

same assay, conditions: mice; cited from earlier work

| Structure (SMILES) | cardiac fibrosis |
| --- | --- |
| CN(C(=S)NN=C(c1ccccn1)c1ccccn1)C1CCCCC1 [DpC, di-2-pyridylketone 4-cyclohexyl-4-methyl-3-thiosemicarbazone, reference compound] | did not induce cardiac fibrosis in mice |
